ChEMBL document CHEMBL5150049, “The discovery of (1R, 3R)-1-(3-chloro-5-fluorophenyl)-3-(hydroxymethyl)-1,2,3,4-tetrahydroisoquinoline-6-carbonitrile, a potent and selective agonist of human transient receptor potential cation channel subfamily m member 5 (TRPM5) and evaluation of as a potential gastrointestinal prokinetic agent” (Bioorg Med Chem, 2022)
pEC50: −log10 of the molar value. Values after ≈ are worked out from the molar mass of the structure shown.

Legend:
[1] = AUC (0 to infinity) in C57BL/6 mouse at 300 mg/kg, po; assay type: ADME, organism-based; parameters: time infinity, dose 300 mg/kg, route po; settings: in vivo
[2] = AUC (0 to infinity) in C57BL/6 mouse at 10 mg/kg, po; assay type: ADME, organism-based; parameters: time infinity, dose 10 mg/kg, route po; settings: in vivo
[3] = Half-life in C57BL/6 mouse at 30 mg/kg, po; assay type: ADME, organism-based; settings: mouse, in vivo, po, 30 mg/kg
[4] = Oral bioavailability in C57BL/6 mouse at 30 mg/kg; assay type: ADME, organism-based; settings: in vivo
[5] = Metabolic stability in human liver microsomes assessed as half life; assay type: ADME, Microsome; settings: liver microsomes
[6] = Area under […] in C57BL/6 mouse at 100 mg/kg administered twice a day; assay type: ADME, organism-based; settings: in vivo
[7] = target: T1, Transient receptor potential cation channel subfamily M member 5 (Homo sapiens, UniProt Q9NZQ8); assay: Agonist activity at human TRPM5 expressed in CHO-K1 cells assessed as increase in relative fluorescence unit measured for 2 mins by FLIPR based membrane potential assay; assay type: cell-based
T1 sequence (Q9NZQ8 whole entry): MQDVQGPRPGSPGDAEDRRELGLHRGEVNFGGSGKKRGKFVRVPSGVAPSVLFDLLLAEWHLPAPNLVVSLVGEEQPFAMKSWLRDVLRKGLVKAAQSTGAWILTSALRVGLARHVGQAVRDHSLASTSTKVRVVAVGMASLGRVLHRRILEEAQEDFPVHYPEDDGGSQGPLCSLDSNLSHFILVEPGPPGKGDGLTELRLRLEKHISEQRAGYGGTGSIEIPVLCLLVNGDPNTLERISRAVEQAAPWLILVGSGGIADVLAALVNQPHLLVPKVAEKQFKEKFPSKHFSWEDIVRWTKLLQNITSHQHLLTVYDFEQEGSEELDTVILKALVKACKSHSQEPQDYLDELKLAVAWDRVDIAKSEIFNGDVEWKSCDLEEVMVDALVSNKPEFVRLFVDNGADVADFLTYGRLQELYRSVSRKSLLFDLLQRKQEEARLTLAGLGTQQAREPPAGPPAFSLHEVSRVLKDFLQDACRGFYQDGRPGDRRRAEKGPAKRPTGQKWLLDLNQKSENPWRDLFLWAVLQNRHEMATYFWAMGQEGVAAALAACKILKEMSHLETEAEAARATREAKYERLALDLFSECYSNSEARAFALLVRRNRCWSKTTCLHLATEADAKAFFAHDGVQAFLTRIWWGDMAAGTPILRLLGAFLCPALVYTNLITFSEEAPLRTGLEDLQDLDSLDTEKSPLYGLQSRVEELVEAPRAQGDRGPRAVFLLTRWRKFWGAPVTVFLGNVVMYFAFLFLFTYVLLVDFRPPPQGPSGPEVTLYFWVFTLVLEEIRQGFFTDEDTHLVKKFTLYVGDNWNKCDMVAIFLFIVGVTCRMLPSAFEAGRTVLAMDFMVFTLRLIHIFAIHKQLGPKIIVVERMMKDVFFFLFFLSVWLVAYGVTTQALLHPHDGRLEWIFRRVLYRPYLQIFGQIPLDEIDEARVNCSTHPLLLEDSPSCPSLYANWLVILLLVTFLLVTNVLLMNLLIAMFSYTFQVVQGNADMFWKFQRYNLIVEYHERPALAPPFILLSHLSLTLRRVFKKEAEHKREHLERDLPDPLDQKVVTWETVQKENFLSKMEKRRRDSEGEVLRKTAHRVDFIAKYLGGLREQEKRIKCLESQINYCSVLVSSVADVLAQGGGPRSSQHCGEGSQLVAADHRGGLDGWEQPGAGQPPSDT

[8] = AUC (0 to infinity) in C57BL/6 mouse at 100 mg/kg, po; assay type: ADME, organism-based; parameters: time infinity, dose 100 mg/kg, route po; settings: in vivo
[9] = Solubility of the compound in JP2 solution at pH 6.8; assay type: physicochemical
[10] = Cmax in C57BL/6 mouse at 100 mg/kg, po; assay type: ADME, organism-based; parameters: dose 100 mg/kg, route po; settings: in vivo
[11] = Half-life in C57BL/6 mouse at 1 mg/kg, iv; assay type: ADME, organism-based; settings: C57BL/6, mouse, in vivo
[12] = Apparent permeability across apical to basolateral side in human Caco-2 cells; assay type: ADME, cell-based
[13] = Cmax in C57BL/6 mouse at 30 mg/kg, po; assay type: ADME, organism-based; parameters: dose 30 mg/kg, route po; settings: in vivo
[14] = Solubility of the compound in JP1 solution at pH 1.2; assay type: physicochemical
[15] = Oral bioavailability in C57BL/6 mouse at 300 mg/kg; assay type: ADME, organism-based; settings: in vivo
[16] = AUC (0 to infinity) in C57BL/6 mouse at 1 mg/kg, iv; assay type: ADME, organism-based; parameters: time infinity, dose 1 mg/kg, route iv; settings: C57BL/6, mouse, in vivo
[17] = Half-life in C57BL/6 mouse at 100 mg/kg, po; assay type: ADME, organism-based; settings: C57BL/6, mouse, in vivo
[18] = Apparent permeability across basolateral to apical side in human Caco-2 cells; assay type: ADME, cell-based
[19] = Unbound fraction in human plasma; assay type: ADME, cell-free
[20] = Area under […] in C57BL/6 mouse at 30 mg/kg administered twice a day; assay type: ADME, organism-based; settings: in vivo
[21] = Clearance in C57BL/6 mouse at 1 mg/kg, iv; assay type: ADME, organism-based; settings: in vivo
[22] = Area under […] in C57BL/6 mouse at 300 mg/kg administered twice a day; assay type: ADME, organism-based; settings: in vivo
[23] = Half-life in C57BL/6 mouse at 300 mg/kg, po; assay type: ADME, organism-based; settings: in vivo
[24] = Half-life in C57BL/6 mouse at 10 mg/kg, po; assay type: ADME, organism-based; settings: C57BL/6, mouse, in vivo
[25] = Volume of distribution at steady state in C57BL/6 mouse at 1 mg/kg, iv; assay type: ADME, organism-based; settings: C57BL/6, mouse, in vivo, read-out: Vdss
[26] = Oral bioavailability in C57BL/6 mouse at 10 mg/kg; assay type: ADME, organism-based; settings: in vivo
[27] = target: Transient receptor potential cation channel subfamily M member 4 (Homo sapiens, UniProt Q8TD43); assay: Agonist activity at human TRPM4 expressed in CHO-K1 cells assessed as increase in relative fluorescence unit by measuring membrane potential by FLIPR assay; assay type: cell-based
Sequence of Transient receptor potential cation channel subfamily M member 4 (Q8TD43 whole entry): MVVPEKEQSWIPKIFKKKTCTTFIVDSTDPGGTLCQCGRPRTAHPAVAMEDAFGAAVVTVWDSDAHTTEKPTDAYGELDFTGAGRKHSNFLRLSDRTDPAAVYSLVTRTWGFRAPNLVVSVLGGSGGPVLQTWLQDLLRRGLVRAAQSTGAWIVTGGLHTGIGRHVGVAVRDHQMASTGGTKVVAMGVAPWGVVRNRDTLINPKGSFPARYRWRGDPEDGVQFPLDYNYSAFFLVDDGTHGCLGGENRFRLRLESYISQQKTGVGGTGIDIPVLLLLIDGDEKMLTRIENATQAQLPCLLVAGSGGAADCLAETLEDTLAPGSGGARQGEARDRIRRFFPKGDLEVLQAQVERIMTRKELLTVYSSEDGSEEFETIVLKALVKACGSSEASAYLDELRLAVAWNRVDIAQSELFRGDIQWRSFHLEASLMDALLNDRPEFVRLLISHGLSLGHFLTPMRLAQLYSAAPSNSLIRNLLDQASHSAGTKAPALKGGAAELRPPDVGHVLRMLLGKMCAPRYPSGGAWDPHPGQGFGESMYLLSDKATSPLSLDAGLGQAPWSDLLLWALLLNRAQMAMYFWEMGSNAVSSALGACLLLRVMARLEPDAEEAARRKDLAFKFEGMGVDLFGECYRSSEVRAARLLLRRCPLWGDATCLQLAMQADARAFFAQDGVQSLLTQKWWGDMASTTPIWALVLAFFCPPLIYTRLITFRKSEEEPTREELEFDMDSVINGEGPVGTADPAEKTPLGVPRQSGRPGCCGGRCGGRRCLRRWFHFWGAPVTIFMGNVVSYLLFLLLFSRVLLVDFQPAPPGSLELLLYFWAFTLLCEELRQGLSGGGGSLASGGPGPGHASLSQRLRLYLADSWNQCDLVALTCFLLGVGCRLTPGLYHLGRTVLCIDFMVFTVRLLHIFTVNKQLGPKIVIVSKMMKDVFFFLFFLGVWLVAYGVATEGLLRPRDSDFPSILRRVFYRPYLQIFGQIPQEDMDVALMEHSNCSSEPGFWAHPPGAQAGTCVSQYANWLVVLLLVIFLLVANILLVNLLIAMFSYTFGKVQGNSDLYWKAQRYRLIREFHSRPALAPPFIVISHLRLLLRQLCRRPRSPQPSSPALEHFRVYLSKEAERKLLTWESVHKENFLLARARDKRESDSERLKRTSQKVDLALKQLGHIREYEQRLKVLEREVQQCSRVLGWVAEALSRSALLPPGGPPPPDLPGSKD

[28] = AUC (0 to infinity) in C57BL/6 mouse at 30 mg/kg, po; assay type: ADME, organism-based; parameters: time infinity, dose 30 mg/kg, route po; settings: in vivo
[29] = Unbound fraction in mouse plasma; assay type: ADME, cell-free
[30] = Cmax in C57BL/6 mouse at 300 mg/kg, po; assay type: ADME, organism-based; parameters: dose 300 mg/kg, route po; settings: in vivo
[31] = Oral bioavailability in C57BL/6 mouse at 100 mg/kg; assay type: ADME, organism-based; settings: in vivo
[32] = Cmax in C57BL/6 mouse at 10 mg/kg, po; assay type: ADME, organism-based; parameters: dose 10 mg/kg, route po; settings: in vivo
[33] = target: T1, Transient receptor potential cation channel subfamily M member 5; assay: Agonist activity at human TRPM5 in HEK293T cells by FLIPR based assay; assay type: cell-based

SMILES: N#Cc1ccc2c(c1)C[C@H](CO)N[C@@H]2c1cc(F)cc(Cl)c1 (racemic)
- AUC(0-inf) [1]: 49400 ng·h/mL
- AUC [2]: 848 ng·h/mL
- t1/2 [3]: 4.4 h
- F [4]: 74%
- half-life [5]: 1.53 h
- AURC [6]: 12.3 h
- pEC50 [7]: 6.90
- AUC [8]: 28050 ng·h/mL
- solubility [9]: 0.201 mg/mL (≈ 0.635 mM)
- Cmax [10]: 3667 ng/mL
- half-life [11]: 1.1 h
- Papp A→B [12]: 10.3 ×10⁻⁶ cm/s
- Cmax [13]: 700 ng/mL
- solubility [14]: 25.3 mg/mL (≈ 79.7 mM)
- bioavailability [15]: 100%
- AUC(0-inf) [16]: 181 ng·h/mL
- half-life [17]: 5.1 h
- Papp B→A [18]: 15.4 ×10⁻⁶ cm/s
- fraction unbound [19]: 0.121
- AURC [20]: 6.7 h
- clearance [21]: 92.3 mL/min/kg
- AURC [22]: 17.3 h
- half-life [23]: 5.5 h
- half-life [24]: 2.9 h
- Vd [25]: 4.41 L/kg
- F [26]: 44%
- pEC50 [27]: 4.94
- AUC [28]: 3676 ng·h/mL
- fraction unbound [29]: 0.115
- Cmax [30]: 6020 ng/mL
- F [31]: 100%
- Cmax [32]: 290 ng/mL

SMILES: C=CC(C)(C)c1cc2cc3c(cc2oc1=O)O[C@H](C(C)(C)OC(C)=O)C3
- pEC50 [33]: 4.57
